Data set [1] can be described thus: Dissolution measurement of PROTAC ARV-110 ASD in phosphate buffer pH 6.8. Type of data set: physicochemical. To be noted: phosphate buffer pH 6.8, room temperature, 0.2 mg/ml, 120 minutes; FIG. 23. The protocol:
For PROTAC ARV-110, the dissolution of the samples was determined at room temperature in phosphate buffer pH 6.8 as dissolution medium. 5 mg of bulk drug or spray dried powder samples equivalent to 5 mg of drug were weighted and placed into a 100 ml of Erlenmeyer flask, subsequently a magnetic stirring bar was added to the Erlenmeyer flask and stirred at 200 rpm, then 25 ml of dissolution medium was added. (concentration: 0.2 mg/ml)
At predetermined time points (5, 10, 20, 40, 60, 90, 120 min), 500 μl of sample were withdrawn from the dissolution vessels and immediately replaced by 500 μl of fresh dissolution medium. The dissolution samples were then filtered through a 0.45 μm filter. The sample is diluted with Eluent B (1:1). Finally, the samples were analyzed towards drug content using HPLC.
A C8-Column (Waters XBridge Column C8, 4.6×50 mm, 3.5 μm) column was used for the quantification.
The eluents are composed as follows: Eluent A: 0.1% formic acid in water; Eluent B: 0.1% formic acid in acetonitrile. Method: linear gradient of 10% to 90% Eluent B in 2 minutes at 1.7 ml/min flow rate.

Data set [2] can be described thus: X-ray powder diffraction and DSC of spray-dried products. Particulars: raw material and spray dried dispersion with PVA 3-82; FIG. 24 to 26. Type of data set: physicochemical. The protocol:
Diffractograms of powders were measured using an Miniflex 600 X-ray diffractometer (Rigaku, Japan) with CuKα radiation (λ=1.54 A). Samples were scanned in reflectance mode from 3° to 50° 2θ (deg), with a scan speed of 10° 2θ (deg)/min and a step size of 0.020° 2θ (deg) and results are shown in FIG. 2. The acceleration voltage and current are 45 kV and 15 mA.
The DSC thermograms of the samples as shown in FIG. 3 were collected using a DSC 3 (METTLER, U.S.) under a nitrogen gas flow of 50 ml/min. A total of 2-5 mg sample powder was filled into an aluminum Tzero pan (40 μL) and sealed with an aluminum Tzero lid. The sample was analyzed at a heating rate of 5° C./min from −25° C. to 230° C.
Spray-drying of ASDs has been prepared as described in Example 2, XRD measurements have been performed as described in Example 1.
Diffractograms of powders were measured using an Miniflex 600 X-ray diffractometer (Rigaku, Japan) with CuKα radiation (λ=1.54 A). Samples were scanned in reflectance mode from 3° to 50° 2θ (deg), with a scan speed of 10° 2θ (deg)/min and a step size of 0.020° 2θ (deg). The acceleration voltage and current are 45 kV and 15 mA.

Take `N#Cc1ccc(O[C@H]2CC[C@H](NC(=O)c3ccc(N4CCC(CN5CCN(c6cc7c(cc6F)C(=O)N(C6CCC(=O)NC6=O)C7=O)CC5)CC4)nn3)CC2)cc1Cl` (some centres unmarked) [ARV-110]: the dissolution result in data set [1] is on record as “neither the raw PROTAC 1, PROTAC 2 nor ARV110 show any measurable dissolution”. Also, the “solid state (XRD)” value in data set [2] is listed as “crystalline”.

The values above are taken from patent US20260083676A1, “SPRAY-DRIED AMORPHOUS SOLID DISPERSIONS AND METHOD FOR PREPARATION” (Merck Patent GMbH, priority 2022, published 2026).
